Experimental data from US10004701B2, “Methods and compositions for treating infection” (UNIVERSITY OF ROCHESTER, priority 2012, dated 2018).

Experiments:
Assay in all cases: AK assay 384-well format, Prestwick library screening
Conditions in all cases: 50 μM final drug concentration
E. faecium = assay type: cell-based, Enterococcus faecium
[1] = tested on: S. aureus strain USA300-0114; assay type: cell-based, Staphylococcus aureus
K. pneumoniae = assay type: cell-based, Klebsiella pneumoniae
[2] = tested on: A. baumannii strain 98-37-09; assay type: cell-based, Acinetobacter baumannii
P. aeruginosa = assay type: cell-based, Pseudomonas aeruginosa
E. cloacae = assay type: cell-based, Enterobacter cloacae
E. coli = assay type: cell-based, Escherichia coli
[3] = planktonic, cutoff for positive 3-fold increase
[4] = cutoff for positive-scoring molecules 3-fold increase

Ketanserin tartrate hydrate
AK-based Prestwick Library Screening Results, E. faecium (fold increase in extracellular AK activity) (E. faecium; [3]): 1.0
AK-based Prestwick Library Screening Results, S. aureus (fold increase in extracellular AK activity) [1, 3]: 1.0
AK-based Prestwick Library Screening Results, K. pneumoniae (fold increase in extracellular AK activity) (K. pneumoniae; [3]): 1.0
AK-based Prestwick Library Screening Results, A. baumannii (fold increase in extracellular AK activity) [2, 3]: 1.2
AK-based Prestwick Library Screening Results, P. aeruginosa (fold increase in extracellular AK activity) (P. aeruginosa; [3]): 1.0
AK-based Prestwick Library Screening Results, E. cloacae (fold increase in extracellular AK activity) (E. cloacae; [3]): 1.4
AK-based Prestwick Library Screening Results, E. coli (fold increase in extracellular AK activity) (E. coli; [3]): 1.3

Lycorine hydrochloride
AK-based Prestwick Library Screening Results, E. faecium (fold increase in extracellular AK activity) (E. faecium; planktonic, […]): 1.0
AK-based Prestwick Library Screening Results, S. aureus (fold increase in extracellular AK activity) ([1]; planktonic, […]): 1.4
AK-based Prestwick Library Screening Results, K. pneumoniae (fold increase in extracellular AK activity) (K. pneumoniae; planktonic, […]): 0.8
AK-based Prestwick Library Screening Results, A. baumannii (fold increase in extracellular AK activity) ([2]; planktonic, […]): 1.0
AK-based Prestwick Library Screening Results, P. aeruginosa (fold increase in extracellular AK activity) (P. aeruginosa; planktonic, […]): 1.1
AK-based Prestwick Library Screening Results, E. cloacae (fold increase in extracellular AK activity) (E. cloacae; planktonic, […]): 1.5
AK-based Prestwick Library Screening Results, E. coli (fold increase in extracellular AK activity) (E. coli; planktonic, […]): 1.0

Mephentermine hemisulfate
AK-based Prestwick Library Screening Results, E. faecium (fold increase in extracellular AK activity) (E. faecium; planktonic, […]): 0.8
AK-based Prestwick Library Screening Results, S. aureus (fold increase in extracellular AK activity) ([1]; planktonic, […]): 0.4
AK-based Prestwick Library Screening Results, K. pneumoniae (fold increase in extracellular AK activity) (K. pneumoniae; planktonic, […]): 0.5
AK-based Prestwick Library Screening Results, A. baumannii (fold increase in extracellular AK activity) ([2]; planktonic, […]): 0.4
AK-based Prestwick Library Screening Results, P. aeruginosa (fold increase in extracellular AK activity) (P. aeruginosa; planktonic, […]): 0.4
AK-based Prestwick Library Screening Results, E. cloacae (fold increase in extracellular AK activity) (E. cloacae; planktonic, […]): 0.4
AK-based Prestwick Library Screening Results, E. coli (fold increase in extracellular AK activity) (E. coli; planktonic, […]): 0.5

Pizotifen malate
AK-based Prestwick library screening result, E. faecium (fold increase in extracellular AK activity) (E. faecium; planktonic E. faecium, positive cutoff 3-fold increase): 1.0
AK-based Prestwick library screening result, S. aureus (fold increase in extracellular AK activity) ([1]; planktonic S. aureus, positive cutoff 3-fold increase): 0.7
AK-based Prestwick library screening result, K. pneumoniae (fold increase in extracellular AK activity) (K. pneumoniae; planktonic K. pneumoniae, positive cutoff 3-fold increase): 0.7
AK-based Prestwick library screening result, A. baumannii (fold increase in extracellular AK activity) ([2]; planktonic A. baumannii, positive cutoff 3-fold increase): 0.8
AK-based Prestwick library screening result, P. aeruginosa (fold increase in extracellular AK activity) (P. aeruginosa; planktonic P. aeruginosa, positive cutoff 3-fold increase): 0.8
AK-based Prestwick library screening result, E. cloacae (fold increase in extracellular AK activity) (E. cloacae; planktonic E. cloacae, positive cutoff 3-fold increase): 1.3
AK-based Prestwick library screening result, E. coli (fold increase in extracellular AK activity) (E. coli; planktonic E. coli, positive cutoff 3-fold increase): 1.0

Pridinol methanesulfonate salt
AK-based Prestwick Library Screening Results, E. faecium (fold increase in extracellular AK activity) (E. faecium; […]): 1.1
AK-based Prestwick Library Screening Results, S. aureus (fold increase in extracellular AK activity) ([1]; […]): 1.2
AK-based Prestwick Library Screening Results, K. pneumoniae (fold increase in extracellular AK activity) (K. pneumoniae; […]): 0.9
AK-based Prestwick Library Screening Results, A. baumannii (fold increase in extracellular AK activity) ([2]; […]): 1.1
AK-based Prestwick Library Screening Results, P. aeruginosa (fold increase in extracellular AK activity) (P. aeruginosa; […]): 1.1
AK-based Prestwick Library Screening Results, E. cloacae (fold increase in extracellular AK activity) (E. cloacae; […]): 1.6
AK-based Prestwick Library Screening Results, E. coli (fold increase in extracellular AK activity) (E. coli; […]): 1.1

Pyrantel tartrate
AK-based Prestwick Library Screening Results: E. faecium (increase in extracellular AK activity) (E. faecium; planktonic E. faecium, 384-well, cutoff for positive-scoring molecules 3-fold increase): 1.1
AK-based Prestwick Library Screening Results: S. aureus (increase in extracellular AK activity) ([1]; planktonic S. aureus, 384-well, cutoff for positive-scoring molecules 3-fold increase): 1.2
AK-based Prestwick Library Screening Results: K. pneumoniae (increase in extracellular AK activity) (K. pneumoniae; planktonic K. pneumoniae, 384-well, cutoff for positive-scoring molecules 3-fold increase): 0.9
AK-based Prestwick Library Screening Results: A. baumannii (increase in extracellular AK activity) ([2]; planktonic A. baumannii, 384-well, cutoff for positive-scoring molecules 3-fold increase): 1.1
AK-based Prestwick Library Screening Results: P. aeruginosa (increase in extracellular AK activity) (P. aeruginosa; planktonic P. aeruginosa, 384-well, cutoff for positive-scoring molecules 3-fold increase): 1.2
AK-based Prestwick Library Screening Results: E. cloacae (increase in extracellular AK activity) (E. cloacae; planktonic E. cloacae, 384-well, cutoff for positive-scoring molecules 3-fold increase): 1.4
AK-based Prestwick Library Screening Results: E. coli (increase in extracellular AK activity) (E. coli; planktonic E. coli, 384-well, cutoff for positive-scoring molecules 3-fold increase): 1.3

Retrorsine
AK-based Prestwick Library Screening Results, E. faecium (fold increase in extracellular AK activity) (E. faecium; planktonic, […]): 1.0
AK-based Prestwick Library Screening Results, S. aureus (fold increase in extracellular AK activity) ([1]; planktonic, […]): 1.2
AK-based Prestwick Library Screening Results, K. pneumoniae (fold increase in extracellular AK activity) (K. pneumoniae; planktonic, […]): 1.2
AK-based Prestwick Library Screening Results, A. baumannii (fold increase in extracellular AK activity) ([2]; planktonic, […]): 1.2
AK-based Prestwick Library Screening Results, P. aeruginosa (fold increase in extracellular AK activity) (P. aeruginosa; planktonic, […]): 1.2
AK-based Prestwick Library Screening Results, E. cloacae (fold increase in extracellular AK activity) (E. cloacae; planktonic, […]): 1.5
AK-based Prestwick Library Screening Results, E. coli (fold increase in extracellular AK activity) (E. coli; planktonic, […]): 1.3

S(−)Eticlopride hydrochloride
AK-based Prestwick Library Screening Results, E. faecium (fold increase in extracellular AK activity) (E. faecium; [4]): 1.0
AK-based Prestwick Library Screening Results, S. aureus (fold increase in extracellular AK activity) [1, 4]: 1.6
AK-based Prestwick Library Screening Results, K. pneumoniae (fold increase in extracellular AK activity) (K. pneumoniae; [4]): 1.1
AK-based Prestwick Library Screening Results, A. baumannii (fold increase in extracellular AK activity) [2, 4]: 1.0
AK-based Prestwick Library Screening Results, P. aeruginosa (fold increase in extracellular AK activity) (P. aeruginosa; [4]): 1.3
AK-based Prestwick Library Screening Results, E. cloacae (fold increase in extracellular AK activity) (E. cloacae; [4]): 1.8
AK-based Prestwick Library Screening Results, E. coli (fold increase in extracellular AK activity) (E. coli; [4]): 0.9
